We go through twelve compounds from ChEMBL document CHEMBL1201862, “PubChem BioAssay data set” (2004).

Assay in all cases: growth of human tumour cells (NCI), 48 h
For experiment [1], the system named is RPMI-8226.
For experiment [2], the system named is SK-MEL-2.
The test system of experiment [3] is CCRF-CEM.
Experiment [4] has as its system NCI/ADR-RES.
The subject of experiment [5] is T47D.
For experiment [6], the system named is COLO 205.
Experiment [7] has as its system CAKI-1.
Experiment [8] deals with HOP-62.
Experiment [9] has as its system DU-145.
Experiment [10] concerns UACC-257.
Experiment [11] has as its system SK-MEL-28.
Experiment [12] has as its system HCT-15.
Experiment [13] has as its system MDA-N.
Experiment [14] concerns U-251.
The test system of experiment [15] is Malme-3M.
Experiment [16] concerns K562.
The test system of experiment [17] is TK-10.
Experiment [18] deals with LOX IMVI.
For experiment [19], the system named is HL-60.

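Briefly, cells in 96-well plates were exposed to five compound concentrations for 48 h, and endpoints were estimated by linear interpolation. The concentration for 50% growth inhibition is given as GI50.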 Calls of active or inactive are those of the source. No stated cut-off is given here; in the data, active = GI50 up to about 1.1 µM and inactive = higher. Where only a bound is given, the exact number is not on record here.

As to `COC(=O)C/N=C1\NC(=S)N(Cc2ccc(OC)cc2)C12CCCC2`, the GI50 in experiment [1], in experiment [2], in experiment [3], in experiment [4], in experiment [5] and in [6] was > 100 µM (inactive) throughout. Further, the GI50 was > 100 µM (inactive) in [7]; > 100 µM (inactive) in experiment [8]; > 100 µM (inactive) in experiment [9]; > 100 µM (inactive) in [10]; > 100 µM (inactive) in [11]; greater than 100 µM in experiment [12]. In addition, the GI50 in [13], in experiment [14], in experiment [15] and in experiment [16] was > 100 µM (inactive) each time.

Regarding `CC(C)(C)N1NC1C1NN1C(C)(C)C` (configuration not stated), the GI50 in experiment [1], in experiment [17], in experiment [2], in [3], in [4] and in [5] was > 100 µM (inactive) throughout. The GI50 in experiment [6], in experiment [18], in experiment [7], in experiment [8], in experiment [9] and in [10] was > 100 µM (inactive) each time. In addition, the GI50 in experiment [11] was > 100 µM (inactive); in experiment [12], greater than 100 µM; in experiment [13], > 100 µM (inactive); in experiment [14], > 100 µM (inactive); in experiment [15], > 100 µM (inactive); in experiment [16], > 100 µM (inactive).

For the compound `Cc1ccc(C(=O)O)c(/C=C2\Cc3cc(C)cc(C)c3C2=O)c1`, the GI50 in [1] was 73.6 µM (inactive); in experiment [17] it was > 100 µM (inactive); in experiment [2], > 100 µM (inactive); in [3], 35.7 µM (inactive); in [5] it was 46.6 µM (inactive); in experiment [18] it was 72.3 µM (inactive). The GI50 in experiment [7] is > 100 µM (inactive); in experiment [8], > 100 µM (inactive); in experiment [19], 38.6 µM (inactive); in experiment [9], > 100 µM (inactive); in experiment [10], 90.6 µM (inactive); in [11], > 100 µM (inactive). Moreover, the GI50 is 53.1 µM in [12]; 56.5 µM (inactive) in experiment [13]; 78.5 µM (inactive) in experiment [14]; 96.4 µM (inactive) in experiment [15]; 52.4 µM (inactive) in [16].

Consider `O=C(O)c1ccc(Cc2ccccc2C(=O)O)cc1`, for which the GI50 in experiment [1], in experiment [17], in experiment [2], in [3], in experiment [4] and in experiment [5] was > 100 µM (inactive) in each case. In addition, the GI50 in experiment [6], in experiment [18], in experiment [7], in experiment [8], in [19] and in experiment [10] was > 100 µM (inactive) each time. Also, the GI50 in experiment [11] is > 100 µM (inactive); in experiment [12], greater than 100 µM; in experiment [13], > 100 µM (inactive); in experiment [14], > 100 µM (inactive); in experiment [15], > 100 µM (inactive); in experiment [16], > 100 µM (inactive).

`Cn1cc[n+](-c2cc(=O)n(C)c(=O)[n-]2)c1`: the GI50 was 96.8 µM (inactive) in [1]; 31.8 µM (inactive) in experiment [17]; > 100 µM (inactive) in experiment [2]; > 100 µM (inactive) in [3]; > 100 µM (inactive) in experiment [4]; 92.3 µM (inactive) in [5]. Also, the GI50 is 96.4 µM (inactive) in experiment [6]; > 100 µM (inactive) in [18]; > 100 µM (inactive) in [8]; > 100 µM (inactive) in experiment [19]; > 100 µM (inactive) in [9]; > 100 µM (inactive) in experiment [10]. Moreover, the GI50 is > 100 µM (inactive) in experiment [11]; greater than 100 µM in experiment [12]; > 100 µM (inactive) in [13]; > 100 µM (inactive) in [14]; > 100 µM (inactive) in experiment [15]; 81.8 µM (inactive) in experiment [16].

With `C=C(Br)C(C)(Br)CCC(Br)C(C)(C)Cl` (configuration not stated), the GI50 is 15.4 µM (inactive) in experiment [1]; 18.2 µM (inactive) in experiment [17]; 25.7 µM (inactive) in [2]; 2.96 µM (inactive) in [3]; 23.7 µM (inactive) in experiment [4]; 20.5 µM (inactive) in [5]. Moreover, the GI50 in experiment [6] is 18.5 µM (inactive); in experiment [8], 23 µM (inactive); in experiment [19], 2.81 µM (inactive); in [9] it was 21.5 µM (inactive); in experiment [10], 19.1 µM (inactive); in experiment [11], 16.3 µM (inactive). The GI50 is 13 µM in experiment [12]; 19.2 µM (inactive) in experiment [13]; 16.2 µM (inactive) in experiment [14]; 20.1 µM (inactive) in experiment [15]; 10.2 µM (inactive) in experiment [16].

Turning to `Cc1ccc(S(=O)(=O)NC(=O)NC(C(=O)O)C(C)O)cc1` (configuration not stated), the GI50 in experiment [1], in [17], in experiment [2], in experiment [3], in [4] and in [5] was > 100 µM (inactive) in each case. The GI50 in [6], in [18], in [8], in [19], in [9] and in [10] was > 100 µM (inactive) throughout. The GI50 in experiment [11] is > 100 µM (inactive); in [12], greater than 100 µM; in experiment [13], > 100 µM (inactive); in [14], > 100 µM (inactive); in [15], > 100 µM (inactive); in [16], > 100 µM (inactive).

`Nc1ccc(-c2nnc(-c3c(Cl)c(Cl)c(Cl)c(Cl)c3-c3nc4cc(C(=O)c5ccccc5)ccc4[nH]3)o2)cc1`: the GI50 in [1] was 14.8 µM (inactive); in experiment [17], 27.5 µM (inactive); in experiment [2] it was 24.5 µM (inactive); in [3], 14.8 µM (inactive); in [4], 16 µM (inactive); in experiment [5], 18.3 µM (inactive). The GI50 in experiment [6] is 18.6 µM (inactive); in experiment [18] it was 34.6 µM (inactive); in experiment [7], 48.1 µM (inactive); in experiment [8], 21.6 µM (inactive); in [9] it was 24.8 µM (inactive); in [10], 48.4 µM (inactive). In addition, the GI50 was 28.5 µM (inactive) in experiment [11]; 15.7 µM in experiment [12]; 4.68 µM (inactive) in experiment [13]; 18.1 µM (inactive) in experiment [14]; 22.8 µM (inactive) in [15]; 8 µM (inactive) in [16].

Consider `COc1ccc(C2C(C#N)=C(S)N(C3OC(CO)C(O)C(O)C3O)C(c3ccccc3)=C2C(C)=O)cc1` (configuration not stated), for which the GI50 in experiment [1] is 51.3 µM (inactive); in experiment [17], > 100 µM (inactive); in experiment [2] it was 49.7 µM (inactive); in experiment [3] it was 63.1 µM (inactive); in experiment [4] it was > 100 µM (inactive); in experiment [5], 6.18 µM (inactive). Moreover, the GI50 is > 100 µM (inactive) in experiment [6]; 60.1 µM (inactive) in [18]; 67.1 µM (inactive) in experiment [8]; 39.7 µM (inactive) in [19]; > 100 µM (inactive) in [9]; 77.4 µM (inactive) in experiment [10]. Besides, the GI50 in experiment [11] was 91.8 µM (inactive); in experiment [12], 74.6 µM; in experiment [13], 37.2 µM (inactive); in experiment [14], 53.2 µM (inactive); in [15] it was 70.6 µM (inactive); in experiment [16] it was 43.6 µM (inactive).

`Cc1ccc(/C=C/c2n[nH]c(N/N=C/c3ccc4c(c3)OCO4)nc2=O)cc1`: the GI50 in experiment [1] is 67.8 µM (inactive); in [17], 25.9 µM (inactive); in [2], 30.8 µM (inactive); in [3], 18.7 µM (inactive); in [4] it was 9.23 µM (inactive); in experiment [5] it was 36.6 µM (inactive). Also, the GI50 in experiment [6] was 74.3 µM (inactive); in experiment [18], 19.6 µM (inactive); in experiment [7], 33.3 µM (inactive); in [8], 19 µM (inactive); in experiment [9] it was 19.4 µM (inactive); in [10] it was 40.1 µM (inactive). Besides, the GI50 in experiment [11] was 16 µM (inactive); in [12] it was 44.9 µM; in [13], 25.3 µM (inactive); in [14], 17.6 µM (inactive); in [15] it was 3.28 µM (inactive); in experiment [16], 30.1 µM (inactive).

`O=c1cc(-c2ccncc2)[nH]c2cc3c(cc12)OCO3`: the GI50 in [1], in [17], in experiment [2], in experiment [4], in experiment [5] and in [6] was > 100 µM (inactive) throughout. Moreover, the GI50 in experiment [8] was > 100 µM (inactive); in experiment [9], > 100 µM (inactive); in experiment [10] it was > 100 µM (inactive); in experiment [11], > 100 µM (inactive); in experiment [12], greater than 100 µM; in experiment [13], > 100 µM (inactive). Further, in [14], the GI50 was > 100 µM (inactive).

Turning to `O=C1C2=Cc3ccccc3OC2(O)Oc2cc(O)cc(O)c21` (configuration not stated), the GI50 in experiment [1] is > 100 µM (inactive); in experiment [17], > 100 µM (inactive); in [2] it was > 100 µM (inactive); in experiment [3] it was 57.4 µM (inactive); in [4], > 100 µM (inactive); in experiment [5] it was > 100 µM (inactive). For the same compound, the GI50 in experiment [6], in experiment [18], in [7], in experiment [8], in experiment [9] and in experiment [10] was > 100 µM (inactive) throughout. Further, the GI50 in experiment [11] was > 100 µM (inactive); in experiment [12] it was greater than 10 µM; in [13], > 100 µM (inactive); in [14] it was > 100 µM (inactive); in experiment [15], > 100 µM (inactive); in experiment [16], 81.7 µM (inactive).
